Earlier results on 1 compound are cited in patent publication US20130034605A1, “EXTENDED RELEASE PHARMACEUTICAL COMPOSITIONS CONTAINING PALIPERIDONE” (MICRO LABS LIMITED, priority 2011, published 2013).

Where two headings read alike, the source gives them in different places.

As to `Cc1nc2n(c(=O)c1CCN1CCC(c3noc4cc(F)ccc34)CC1)CCCC2O` (racemic) [Paliperidone, (RS)-3-[2-[4-(6-fluorobenzo[d]isoxazol-3-yl)-1-piperidyl]ethyl]-7-hydroxy-4-methyl-1,5-diazabicyclo[4.4.0]deca-3,5-dien-2-one], the Solubility result by setting is: (in 0.1 N hydrochloric acid) “soluble”; (in methanol) “soluble”; (in methylene chloride) “freely soluble”; (in water) “practically insoluble”.
